The record followed here is a melting point compilation (Tetko et al.; mined from patent text by program, amines drawn as free bases though some values may be those of a salt).

In general, melting point refers to the temperature, or range, at which the solid turns liquid. Regarding `COc1cc2c(cc1-c1cccnc1)-c1c(-c3cccs3)c3c(n1CC2)C(=O)N(C(C)C)CCN(C(=O)OC(C)(C)C)C3`, the melting point was 207 to 208 °C.

`COc1cc(OCc2ccccn2)ccc1/C=C/C(=O)CC(=O)/C=C/c1c[nH]c2ccc(F)cc12` returned a melting point of 183 to 186 °C.

As for `Cn1c2ccccc2c2sccc(=O)c21`, the melting point is 113 to 114 °C.

Take `CCc1nn(C2CCCC2)c2c1CCN(c1ccc(OC)cc1)C2=O`: the melting point is 64.7 °C.

`CCCCOc1c(CNC(=O)OC(C)(C)C)n(CC(C)(C)C)c(=O)c2ccc(/C=C/C(N)=O)cc12` yielded a melting point of 121 to 122 °C.

As to `Nc1nc2ccccc2c2c1ncn2CCOCc1ccccn1`, the melting point fell in the range of 196 to 198 °C.

Molecule `CCOC(=O)Cc1cccc(S(=O)(=O)c2ccccc2)c1[N+](=O)[O-]` returned a melting point of 105 to 106 °C.

Regarding `CN=C(NC#N)Nc1ccc2c(c1)CCC1(C)CC(=O)NN=C21` (stereo not given), the melting point worked out at 269 °C.

As for `CNC(Cc1ccc(Cl)nc1)=C(N)C(=O)C(F)(F)F`, the melting point is 114 °C.

With `Cc1nc(NC(=O)c2cc(Cl)cc(Cl)c2)sc1C(=O)NCc1ccccc1`, the melting point fell in the range of 104 to 105 °C.

Molecule `NNC(=O)c1ncc2[nH]c3ccccc3c2n1` displayed a melting point of over 340 °C.

`Cc1ccc(N2C(=O)C(O)=C(C(=O)c3ccc(C(C)C)cc3)C2c2ccc(Cn3ccnn3)cc2)nn1` (stereo not given) showed a melting point of 293 °C.

The molecule `O=C1CN(Cc2ccc(COc3cccc4c3CN(C3CCC(=O)NC3=O)C4=O)cc2)CCN1` (stereo not given) yielded a melting point of 245 to 247 °C.

`O=C1C(=O)c2ccccc2C2=C1SCC1(CCN(C(=O)CSc3ccccc3)CC1)O2` yielded a melting point of 155 to 157 °C.

Turning to `Cn1cc(C(N)=O)c(=O)c2ccc(C(F)(F)F)cc21`, the melting point lay in the range of 288 to 292 °C.

`Cc1cc(C(=O)O)ccc1OCCNC(=O)C1Cc2ccccc2N1S(=O)(=O)c1ccc(-c2ccc(F)cc2)cc1` (stereo not given) returned a melting point of 112 to 118 °C.

The molecule `CC(C)Cn1cnc2c(Br)c(NC3=NCCN3)ccc21` displayed a melting point of 226 to 227 °C.

Turning to `CCOC1=CC(=O)CC(c2ccccc2O)C1` (stereo not given), the melting point is 194 to 197 °C.

Consider `Clc1ccc(Cl)c(CN2CCNc3ncc(-c4ccc(N5CCCC5)nc4)cc32)c1`, for which the melting point is over 200 °C.

`COCCOc1ccc(/C=C/C(=O)O)c(Oc2ccc(C(F)(F)F)cc2Cl)c1` showed a melting point of 166 °C.

Regarding `CCCc1nn(-c2ccc(C(F)(F)F)cn2)cc1CCCOc1c(F)cccc1CC(=O)O`, the melting point fell in the range of 105 to 106 °C.

The molecule `CNc1nc2ncnn2c(NC2CCCC2)c1-c1ccccc1` yielded a melting point of 158 to 160 °C.

Regarding `COc1ccc(CCC(=O)c2cccnc2Oc2ccc(F)cc2)cc1`, the melting point was in the range of 73 to 74 °C.

Take `O=C(Nc1ccc(Br)cc1)C(=O)N1CCC(Cc2ccccc2)CC1`: the melting point lay in the range of 131 to 132 °C.

With `Cn1cc(C(=O)NCc2ccc(Br)cc2)c(=O)c2cc(CN3CCOCC3)sc21`, the melting point is 245 to 246 °C.

Consider `CCn1cc(OS(C)(=O)=O)c(=O)c2ccccc21`, for which the melting point was 141 to 143 °C.

On to `CCOC(=O)N1CC2(C1)N=C(N)c1c(F)cccc1N2`, for which the melting point was in the range of 210 to 212 °C.

`N#CC(CCC(=O)O)(CC(=O)O)c1ccc(Cl)c(Cl)c1` (stereo not given) showed a melting point of 152 °C.

In turn, `CCc1cccc(N)c1C(=O)O` registered a melting point of 99 to 104 °C.

Molecule `S=c1nc2ccc(Br)cn2c(=S)n1-c1ccc(Br)cn1` showed a melting point of 77 °C.

For the molecule `COc1cccc2c1C(=O)C(=O)N2`, the melting point lay in the range of 198 to 200 °C.

Regarding `CCOc1ccc2nc(C)cc(=O)n2c1C`, the melting point lay in the range of 112 to 114 °C.

The molecule `COC(=O)Cc1sc(F)c(N=c2sc(=O)n3n2CCCC3)c1Cl` came in with a melting point of 99 to 101 °C.

In the case of `N=C(NS(=O)(=O)C=Cc1ccc(Cl)c(Cl)c1)c1ccccc1`, the melting point fell in the range of 144 to 146 °C.

The molecule `CN(CCc1cccc(O)c1)c1cnc(-c2ccccc2)c(-c2ccccc2)n1` yielded a melting point of 158 to 161 °C.

`c1ccc2c(c1)NCc1cscc1N2` yielded a melting point of 167 to 169 °C.

Molecule `O=C(O)C1Cc2ccccc2N1S(=O)(=O)c1ccc(-c2ccc(F)cc2F)cc1` (stereo not given) registered a melting point of 88 to 92 °C.

In the case of `COc1ccc2[nH]c(CCN(C)C)c(CSc3ccccc3)c2c1`, the melting point was in the range of 85 to 88 °C.

`O=c1ccoc(C(O)c2ccccc2F)c1OCc1ccccc1` (stereo not given) came in with a melting point of 116 °C.

Take `CCOC(=O)c1cnc2c(c(C)nn2-c2ccccn2)c1Cl`: the melting point fell in the range of 121 to 123 °C.

The molecule `CCc1nc2nc3cc(Cl)ccc3nc2n1C(=O)C=C(C)C` had a melting point of 170 to 172 °C.

As to `O=Cc1ccc(/C=C/c2ccncc2)nc1`, the melting point lay in the range of 131 to 136 °C.

In turn, `c1ccc2c(c1)Cn1cccc1C1CNCCN21` (stereo not given) registered a melting point of 56 to 58 °C.

As for `O=C(NC(Cc1ccccc1F)C(=O)N1CCSC1)c1cc2cc(Cl)ccc2[nH]1` (stereo not given), the melting point was 216 to 217 °C.

Consider `CC(C)C[C@H](NC(=O)c1ccccc1Cl)C(=O)N[C@@H](C(C)C)[C@@H](O)c1c(-c2ccccc2)c1=O`, for which the melting point is 99 to 104 °C.

In turn, `CN(C)S(=O)(=O)c1cccc(NC(=O)c2cnn3c(C(F)F)cc(-c4ccc(C(F)(F)F)cc4)nc23)c1` displayed a melting point of 197 °C.

`COc1c(C#Cc2ccc(NS(C)(=O)=O)cc2C)cc(N2CCC(=O)NC2=O)cc1C(C)(C)C` had a melting point of over 280 °C.

On to `CC(=O)N(C(C)=O)c1cc2c(cc1Cl)C(=O)C1(CCOC1=O)O2` (stereo not given), for which the melting point was in the range of 181 to 185 °C.

`O=C(c1cc(C(F)(F)F)cc(C(F)(F)F)c1)N1CCC2(CC1)C(=O)NCN2c1cccc(Cl)c1` had a melting point of 235 to 236 °C.

As for `CC1CC2C3CCC4=CC(=O)C=CC4(C)C3=CCC2(C)C1C(=O)CN1CCN(c2cc(NCC(C)(C)C)nc(NC(C)(C)C)n2)CC1` (stereo not given), the melting point lay within 155 to 160 °C.

Molecule `NS(=O)(=O)c1cc2[nH]c(-c3ccccc3)nc2cc1Cl` registered a melting point of 314 to 316 °C.

For `CC(C)(C)OC(=O)N1C(=O)[C@H](O)[C@@H]1c1ccccc1`, the melting point was 132 °C.

In turn, `N#Cc1c(O)cccc1[N+](=O)[O-]` registered a melting point of 200 °C.

The molecule `Cc1c(C(=O)Nc2ccc(N3CCC(N4CCC(O)CC4)CC3)c(C#N)c2)cnn1-c1ccc(Cl)cc1` showed a melting point of 213 °C.

`c1csc(-c2cc(-c3cccs3)ncn2)c1`: the melting point was determined as 146 °C.

For `Cc1cc(OCc2ccccc2)cc(=O)o1`, the melting point fell in the range of 90 to 91 °C.

Consider `CC(c1ccccc1)c1cccnn1` (stereo not given), for which the melting point was 43 to 48 °C.

As for `CCOC(=O)c1cnn(-c2ccccc2[N+](=O)[O-])c1C(=O)OCC`, the melting point was in the range of 45 to 46 °C.

`O=C(O)Cn1c(-c2ccc(Br)o2)nc2cccnc21`: the melting point fell in the range of 229 to 231 °C.

Regarding `N#CN1CCC2(CC1)CN(c1ccc(Cl)cc1)c1ccccc12`, the melting point was in the range of 178 to 180 °C.

Turning to `Cc1c(NCCCNCC(O)COc2ccccc2)n(C)c(=O)n(C)c1=O` (stereo not given), the melting point was in the range of 132 to 133 °C.

As for `COc1cc(Nc2ncc3c(n2)-c2ccccc2CCC3)cc(OC)c1OC`, the melting point lay within 201 to 202 °C.

Consider `O=C(Nc1ccc([N+](=O)[O-])cc1O)OCc1ccccc1`, for which the melting point is 200 °C.

Take `O=c1cc(NCCN2CCN(c3ccc(F)cc3)CC2)cn[nH]1`: the melting point fell in the range of 96 to 98 °C.

In turn, `CNc1ccc(-c2ccnc(-c3cn(C)c(=O)n3-c3ccc(C(C)(C)C#N)cc3)c2)cn1` came in with a melting point of 191 °C.

Molecule `CC#CN(C)c1nc2ccccc2s1` showed a melting point of 58 to 59 °C.

In the case of `COC(=O)c1[nH]c(=O)n(C(=O)NCCCN2CCN(c3ccccc3OC)CC2)c1-c1ccc(F)c(F)c1`, the melting point was in the range of 122 to 124 °C.

`CCCCc1nn(Cc2ccc(C(=O)O)cc2)c2ccccc2c1=O` gave a melting point of 220 °C.

`CCc1scc(C(=O)OC)c1NC(C)=O` registered a melting point of 85 to 86 °C.

In the case of `CCC1(C(=O)C(C(O)C(Cl)(Cl)Cl)n2cncn2)CCCC1` (stereo not given), the melting point fell in the range of 194 to 196 °C.

In turn, `CC(C)OC(=O)C(=C1SC=CS1)c1ccc(F)cc1` registered a melting point of 86 °C.

The molecule `CCOC(=O)c1cc(O)ccc1CCc1cc2cc(C#N)ccc2o1` displayed a melting point of 133 to 135 °C.

The molecule `CC(=C1SC(=O)NC1=O)c1cccc(OCCCOc2c(-c3ccc(F)cc3)n(C)c3ccccc3c2=O)c1` displayed a melting point of 168 to 170 °C.

Take `CCOC(=O)c1cnn2c1c(Cl)nc1ccccc12`: the melting point fell in the range of 105 to 106 °C.

Take `NP(N)(=O)Oc1ccc2cccc(NS(=O)(=O)c3ccc([N+](=O)[O-])cc3)c2c1`: the melting point lay within 234 to 235 °C.

`O=[N+]([O-])c1ccc(F)c(-c2ccncc2)c1F` showed a melting point of 110 to 112 °C.

For `COc1ccc(OC)c(C(=O)c2cc3cc(OC)ccc3o2)c1`, the melting point lay in the range of 119 to 121 °C.

The molecule `CCCSc1ncc(CC(=O)O)n1Cc1ccccc1Cl` had a melting point of 68 to 71 °C.

In turn, `Cc1cc2c(cc1Cl)NC(=O)C2(N)c1ccccc1Cl` (stereo not given) came in with a melting point of 233 °C.

`Cc1ccn(-c2ccc(C(=O)N3Cc4cccnc4N(C)c4ccccc43)c(C(F)(F)F)c2)n1` registered a melting point of 188 to 190 °C.

Turning to `CCOC(=O)c1c(C)cc2c(c1C)C(=O)OCC2=O`, the melting point fell in the range of 142 to 144 °C.

Turning to `CN(C)c1cccc(C(=O)Nc2ccc3ccc(Cl)nc3n2)c1`, the melting point was 215 °C.

Consider `Cc1ccc(O)c(C(=O)OCC=Cc2ccccc2)c1`, for which the melting point was in the range of 178 to 179 °C.

For the molecule `Cc1cc2[nH]nnc2c(Br)c1C`, the melting point lay in the range of 255 to 262 °C.

Take `COc1ccc2c(c1)CCC1CCNC(=O)C(CC(=O)NC(C)C)=C21` (stereo not given): the melting point lay in the range of 213 to 216 °C.

`NCc1ccc2sc3ccccc3c(=O)c2c1` gave a melting point of 134 to 136 °C.

`CCCc1c(CSc2nnc(SCc3ccc(OCC(=O)O)cc3)s2)ccc(C(C)=O)c1O` registered a melting point of 131 to 134 °C.

`O=c1[nH]nc(-c2ccc3ccccc3c2)o1` showed a melting point of 197 to 199 °C.

For the molecule `CN(C(=O)c1ccc2nonc2c1)C1CCC(=NO)CC1` (stereo not given), the melting point fell in the range of 197 to 198 °C.

`O=C1C(=O)c2ccccc2C2=C1SCC1(CCCCC1)O2` showed a melting point of 194 to 195 °C.
